ChEMBL document CHEMBL3991601, “The target landscape of clinical kinase drugs” (Science, 2017)
Active and inactive are the calls of the source.

How the values were obtained:
[1] = target: Serine/threonine-protein kinase pim-1 (Homo sapiens, UniProt P11309)
[2] = target: Rho-associated protein kinase 2 (Homo sapiens, UniProt O75116)
ADP/ATP translocase 3 = target: T1, ADP/ATP translocase 3 (Homo sapiens, UniProt P12236)
T1 sequence (P12236 whole entry): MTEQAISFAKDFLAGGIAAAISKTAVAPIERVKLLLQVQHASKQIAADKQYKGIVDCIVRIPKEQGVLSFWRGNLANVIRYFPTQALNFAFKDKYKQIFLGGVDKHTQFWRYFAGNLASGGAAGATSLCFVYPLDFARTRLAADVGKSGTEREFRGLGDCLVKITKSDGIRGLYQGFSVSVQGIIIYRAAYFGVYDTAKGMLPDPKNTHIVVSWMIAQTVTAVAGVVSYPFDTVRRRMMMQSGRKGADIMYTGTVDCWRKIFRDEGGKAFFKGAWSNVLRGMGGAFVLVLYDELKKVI

[3] = target: T2, Serine/threonine-protein kinase ICK (Homo sapiens, UniProt Q9UPZ9)
T2 sequence (Q9UPZ9 whole entry): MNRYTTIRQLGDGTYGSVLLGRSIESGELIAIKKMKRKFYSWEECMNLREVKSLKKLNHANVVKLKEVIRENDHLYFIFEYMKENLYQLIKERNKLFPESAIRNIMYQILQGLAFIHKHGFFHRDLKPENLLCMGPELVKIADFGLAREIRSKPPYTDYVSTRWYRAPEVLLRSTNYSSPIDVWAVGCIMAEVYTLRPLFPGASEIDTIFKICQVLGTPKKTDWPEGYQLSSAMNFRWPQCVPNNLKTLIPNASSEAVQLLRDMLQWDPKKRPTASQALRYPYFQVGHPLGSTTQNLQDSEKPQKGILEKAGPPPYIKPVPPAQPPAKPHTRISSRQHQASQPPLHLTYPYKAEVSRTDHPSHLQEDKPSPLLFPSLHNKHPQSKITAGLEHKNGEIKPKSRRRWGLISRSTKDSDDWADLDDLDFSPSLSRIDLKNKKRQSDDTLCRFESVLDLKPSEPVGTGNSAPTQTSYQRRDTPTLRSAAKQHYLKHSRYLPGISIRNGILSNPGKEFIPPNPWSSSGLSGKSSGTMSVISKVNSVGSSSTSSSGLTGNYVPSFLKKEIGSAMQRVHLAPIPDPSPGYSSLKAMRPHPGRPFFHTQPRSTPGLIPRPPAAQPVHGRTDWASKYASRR

Pyridoxal kinase = target: T3, Pyridoxal kinase (Homo sapiens, UniProt O00764)
T3 sequence (O00764 whole entry): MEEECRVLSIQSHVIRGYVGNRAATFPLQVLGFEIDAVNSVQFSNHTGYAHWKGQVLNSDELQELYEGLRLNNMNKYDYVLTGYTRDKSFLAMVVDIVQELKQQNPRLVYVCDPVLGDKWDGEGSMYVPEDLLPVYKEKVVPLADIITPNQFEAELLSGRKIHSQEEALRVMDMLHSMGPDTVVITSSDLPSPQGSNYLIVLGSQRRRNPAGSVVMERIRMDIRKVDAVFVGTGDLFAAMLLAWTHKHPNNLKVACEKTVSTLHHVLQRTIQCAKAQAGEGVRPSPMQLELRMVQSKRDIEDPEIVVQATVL

[4] = target: Myosin light chain kinase, smooth muscle (Homo sapiens, UniProt Q15746)
[5] = target: Adenylate kinase 2, mitochondrial (Homo sapiens, UniProt P54819)
[6] = target: Cyclin-dependent kinase 4 (Homo sapiens, UniProt P11802)
Chain of Cyclin-dependent kinase 4 (P11802 whole entry): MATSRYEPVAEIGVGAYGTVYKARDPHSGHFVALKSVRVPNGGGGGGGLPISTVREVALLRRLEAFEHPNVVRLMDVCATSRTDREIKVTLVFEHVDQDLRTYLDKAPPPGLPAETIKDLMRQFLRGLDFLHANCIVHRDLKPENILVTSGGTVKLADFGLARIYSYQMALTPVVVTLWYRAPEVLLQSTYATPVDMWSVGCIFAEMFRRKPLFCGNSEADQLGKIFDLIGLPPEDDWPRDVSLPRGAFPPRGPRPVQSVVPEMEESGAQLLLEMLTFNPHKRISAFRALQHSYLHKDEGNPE

[7] = target: Tyrosine-protein kinase ABL1 (Homo sapiens, UniProt P00519)
Chain of Tyrosine-protein kinase ABL1 (P00519 whole entry): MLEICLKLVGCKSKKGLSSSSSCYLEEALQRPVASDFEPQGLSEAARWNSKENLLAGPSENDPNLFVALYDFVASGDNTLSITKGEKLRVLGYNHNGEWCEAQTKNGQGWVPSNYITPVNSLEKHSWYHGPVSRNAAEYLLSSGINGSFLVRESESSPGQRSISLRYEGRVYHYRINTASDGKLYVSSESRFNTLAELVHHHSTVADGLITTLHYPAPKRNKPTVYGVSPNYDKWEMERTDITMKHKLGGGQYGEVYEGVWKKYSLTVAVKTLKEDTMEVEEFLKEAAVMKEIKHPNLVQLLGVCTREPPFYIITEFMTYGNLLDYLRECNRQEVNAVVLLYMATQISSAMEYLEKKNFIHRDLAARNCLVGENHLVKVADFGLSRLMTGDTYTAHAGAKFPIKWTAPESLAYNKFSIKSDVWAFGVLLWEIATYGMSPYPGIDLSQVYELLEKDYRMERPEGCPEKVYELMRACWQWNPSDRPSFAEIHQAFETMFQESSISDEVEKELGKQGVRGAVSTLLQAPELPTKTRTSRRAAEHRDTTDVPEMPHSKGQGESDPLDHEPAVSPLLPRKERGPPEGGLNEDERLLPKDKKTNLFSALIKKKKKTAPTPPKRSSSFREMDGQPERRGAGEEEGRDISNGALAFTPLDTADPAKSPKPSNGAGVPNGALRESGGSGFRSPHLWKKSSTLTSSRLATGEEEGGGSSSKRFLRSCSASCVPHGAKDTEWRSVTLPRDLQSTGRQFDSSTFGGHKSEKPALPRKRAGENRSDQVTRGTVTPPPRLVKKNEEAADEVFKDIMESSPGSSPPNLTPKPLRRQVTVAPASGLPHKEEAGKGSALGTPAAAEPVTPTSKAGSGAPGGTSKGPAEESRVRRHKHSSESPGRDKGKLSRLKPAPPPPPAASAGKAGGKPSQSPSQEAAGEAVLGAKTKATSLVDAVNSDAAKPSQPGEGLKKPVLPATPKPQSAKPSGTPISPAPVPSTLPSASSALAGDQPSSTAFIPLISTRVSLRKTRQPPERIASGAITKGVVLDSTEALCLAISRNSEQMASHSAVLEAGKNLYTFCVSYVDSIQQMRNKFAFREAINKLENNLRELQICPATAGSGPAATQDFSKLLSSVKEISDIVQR

[8] = target: Serine/threonine-protein kinase PAK 2 (Homo sapiens, UniProt Q13177)
Chain of Serine/threonine-protein kinase PAK 2 (Q13177 whole entry): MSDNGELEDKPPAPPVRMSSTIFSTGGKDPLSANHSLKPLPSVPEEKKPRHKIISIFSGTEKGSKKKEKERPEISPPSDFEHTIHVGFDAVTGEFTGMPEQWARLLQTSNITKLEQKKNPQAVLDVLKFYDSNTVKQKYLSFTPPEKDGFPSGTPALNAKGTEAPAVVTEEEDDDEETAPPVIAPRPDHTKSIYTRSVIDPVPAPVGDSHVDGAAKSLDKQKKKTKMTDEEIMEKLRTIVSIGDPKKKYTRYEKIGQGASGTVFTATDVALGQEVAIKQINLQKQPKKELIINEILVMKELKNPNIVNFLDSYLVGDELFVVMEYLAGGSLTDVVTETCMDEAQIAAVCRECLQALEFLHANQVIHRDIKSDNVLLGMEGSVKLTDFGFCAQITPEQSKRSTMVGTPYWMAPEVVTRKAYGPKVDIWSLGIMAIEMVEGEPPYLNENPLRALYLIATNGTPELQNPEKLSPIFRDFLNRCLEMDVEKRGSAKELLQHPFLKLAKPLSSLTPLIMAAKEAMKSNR

Ephrin type-A receptor 2 = Ephrin type-A receptor 2 (Homo sapiens, UniProt P29317)
Chain of Ephrin type-A receptor 2 (P29317 whole entry): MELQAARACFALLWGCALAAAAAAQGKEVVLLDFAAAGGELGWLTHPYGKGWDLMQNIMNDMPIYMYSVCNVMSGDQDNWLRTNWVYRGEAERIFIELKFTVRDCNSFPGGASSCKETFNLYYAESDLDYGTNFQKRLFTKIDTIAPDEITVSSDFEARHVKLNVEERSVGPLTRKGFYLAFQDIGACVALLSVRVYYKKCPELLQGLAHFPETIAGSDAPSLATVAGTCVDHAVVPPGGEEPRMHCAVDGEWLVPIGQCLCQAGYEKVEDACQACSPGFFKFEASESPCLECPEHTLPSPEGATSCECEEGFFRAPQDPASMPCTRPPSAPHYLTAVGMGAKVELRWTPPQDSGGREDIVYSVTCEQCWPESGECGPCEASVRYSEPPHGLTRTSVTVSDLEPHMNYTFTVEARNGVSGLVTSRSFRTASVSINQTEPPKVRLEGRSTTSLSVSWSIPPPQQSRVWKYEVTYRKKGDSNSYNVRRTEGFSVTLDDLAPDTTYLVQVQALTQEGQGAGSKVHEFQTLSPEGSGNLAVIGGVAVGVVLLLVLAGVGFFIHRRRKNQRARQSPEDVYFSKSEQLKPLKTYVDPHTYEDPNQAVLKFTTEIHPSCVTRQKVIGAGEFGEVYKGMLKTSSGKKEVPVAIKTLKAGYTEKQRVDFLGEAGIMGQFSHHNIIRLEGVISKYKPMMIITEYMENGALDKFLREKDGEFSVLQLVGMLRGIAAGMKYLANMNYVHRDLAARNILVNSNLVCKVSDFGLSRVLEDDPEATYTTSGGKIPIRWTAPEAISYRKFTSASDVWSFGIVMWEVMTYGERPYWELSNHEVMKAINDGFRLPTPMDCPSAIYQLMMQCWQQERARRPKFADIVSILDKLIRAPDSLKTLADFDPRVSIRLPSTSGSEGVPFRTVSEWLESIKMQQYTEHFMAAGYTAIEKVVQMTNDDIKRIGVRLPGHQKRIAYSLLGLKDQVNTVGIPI

[9] = target: Citron Rho-interacting kinase (Homo sapiens, UniProt O14578)
Glycine--tRNA ligase = target: T4, Glycine--tRNA ligase (Homo sapiens, UniProt P41250)
T4 sequence (P41250 whole entry): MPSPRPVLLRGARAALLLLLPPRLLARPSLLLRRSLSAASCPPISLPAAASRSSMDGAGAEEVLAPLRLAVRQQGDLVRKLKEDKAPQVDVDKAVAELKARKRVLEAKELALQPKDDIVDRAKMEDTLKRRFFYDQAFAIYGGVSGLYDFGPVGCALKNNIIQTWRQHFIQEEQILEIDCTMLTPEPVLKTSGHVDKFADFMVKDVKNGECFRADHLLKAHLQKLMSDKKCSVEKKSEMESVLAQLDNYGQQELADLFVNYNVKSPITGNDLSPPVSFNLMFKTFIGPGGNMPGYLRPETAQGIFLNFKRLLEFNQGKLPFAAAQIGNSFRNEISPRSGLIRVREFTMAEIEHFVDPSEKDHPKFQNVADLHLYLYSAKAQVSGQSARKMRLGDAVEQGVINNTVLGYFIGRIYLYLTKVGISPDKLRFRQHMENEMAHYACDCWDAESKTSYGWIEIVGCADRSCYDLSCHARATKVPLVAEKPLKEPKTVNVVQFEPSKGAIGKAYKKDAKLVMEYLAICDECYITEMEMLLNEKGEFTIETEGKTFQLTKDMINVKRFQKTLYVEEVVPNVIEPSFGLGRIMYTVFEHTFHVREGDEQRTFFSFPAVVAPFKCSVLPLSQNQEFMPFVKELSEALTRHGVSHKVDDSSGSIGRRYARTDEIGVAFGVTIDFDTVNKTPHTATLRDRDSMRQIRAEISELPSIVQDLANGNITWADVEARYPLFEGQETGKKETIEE
Also: in the data inactive means no Kd found up to 30 µM.

Chain of Rho-associated protein kinase 2 (O75116 whole entry): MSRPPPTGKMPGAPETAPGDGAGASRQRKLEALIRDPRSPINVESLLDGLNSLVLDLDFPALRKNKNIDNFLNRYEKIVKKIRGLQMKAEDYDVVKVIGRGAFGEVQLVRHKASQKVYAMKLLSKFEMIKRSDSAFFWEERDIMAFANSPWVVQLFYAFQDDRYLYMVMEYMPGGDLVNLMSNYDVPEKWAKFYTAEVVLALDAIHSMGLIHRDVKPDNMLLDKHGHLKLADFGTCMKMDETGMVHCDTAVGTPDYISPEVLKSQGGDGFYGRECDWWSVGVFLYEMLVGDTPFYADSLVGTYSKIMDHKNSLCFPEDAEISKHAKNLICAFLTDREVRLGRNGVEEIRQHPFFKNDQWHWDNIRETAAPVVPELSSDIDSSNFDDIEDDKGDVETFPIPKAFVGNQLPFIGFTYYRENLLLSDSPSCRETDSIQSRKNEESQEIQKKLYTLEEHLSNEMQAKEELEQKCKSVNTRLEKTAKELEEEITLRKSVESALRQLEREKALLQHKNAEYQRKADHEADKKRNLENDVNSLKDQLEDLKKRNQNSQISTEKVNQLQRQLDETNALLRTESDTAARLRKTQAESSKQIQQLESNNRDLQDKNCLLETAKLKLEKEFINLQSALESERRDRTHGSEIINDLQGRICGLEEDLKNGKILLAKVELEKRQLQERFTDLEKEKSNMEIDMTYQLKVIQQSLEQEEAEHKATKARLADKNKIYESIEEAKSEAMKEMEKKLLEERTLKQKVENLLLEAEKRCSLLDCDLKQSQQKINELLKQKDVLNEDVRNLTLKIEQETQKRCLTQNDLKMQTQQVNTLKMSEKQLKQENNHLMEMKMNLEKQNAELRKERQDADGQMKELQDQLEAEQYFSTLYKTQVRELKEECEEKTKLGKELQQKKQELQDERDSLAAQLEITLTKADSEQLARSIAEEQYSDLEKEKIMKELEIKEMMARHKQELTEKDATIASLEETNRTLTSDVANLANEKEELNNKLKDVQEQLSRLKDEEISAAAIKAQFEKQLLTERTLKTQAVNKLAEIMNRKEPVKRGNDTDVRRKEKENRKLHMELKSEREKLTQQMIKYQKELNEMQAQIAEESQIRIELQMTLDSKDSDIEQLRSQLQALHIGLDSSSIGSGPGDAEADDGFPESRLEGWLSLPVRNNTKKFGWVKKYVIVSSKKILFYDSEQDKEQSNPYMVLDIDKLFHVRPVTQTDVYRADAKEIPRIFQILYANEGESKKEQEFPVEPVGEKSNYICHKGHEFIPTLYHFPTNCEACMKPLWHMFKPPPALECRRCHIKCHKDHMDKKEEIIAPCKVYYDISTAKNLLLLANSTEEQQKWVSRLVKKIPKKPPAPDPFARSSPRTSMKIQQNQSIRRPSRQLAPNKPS
Chain of Serine/threonine-protein kinase pim-1 (P11309 whole entry): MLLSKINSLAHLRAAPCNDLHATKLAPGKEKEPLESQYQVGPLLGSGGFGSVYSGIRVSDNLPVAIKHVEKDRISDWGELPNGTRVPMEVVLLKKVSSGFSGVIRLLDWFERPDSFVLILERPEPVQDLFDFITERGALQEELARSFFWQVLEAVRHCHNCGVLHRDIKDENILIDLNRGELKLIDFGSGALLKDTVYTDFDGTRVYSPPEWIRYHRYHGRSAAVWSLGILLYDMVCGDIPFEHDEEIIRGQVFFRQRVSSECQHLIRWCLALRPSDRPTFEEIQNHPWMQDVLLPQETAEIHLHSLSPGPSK

| Compound | Kd [1] | Kd [2] | Kd (ADP/ATP translocase 3) | Kd [3] | Kd (Pyridoxal kinase) | Kd [4] | Kd [5] | Kd [6] | Kd [7] | Kd [8] | Kd (Ephrin type-A receptor 2) | Kd [9] | Kd (Glycine--tRNA ligase) |
| --- | --- | --- | --- | --- | --- | --- | --- | --- | --- | --- | --- | --- | --- |
| Cn1cc(-c2cnn3c(N)c(Br)c([C@@H]4CCCNC4)nc23)cn1 [SCH-900776] | 19.3 µM (active) | > 30 µM (inactive) | > 30 µM (inactive) | > 30 µM (inactive) | > 30 µM (inactive) | > 30 µM (inactive) | > 30 µM (inactive) | > 30 µM (inactive) | > 30 µM (inactive) | > 30 µM (inactive) | > 30 µM (inactive) | > 30 µM (inactive) | > 30 µM (inactive) |
| CO[C@H]1C[C@@H]2CC[C@@H](C)[C@@](O)(O2)C(=O)C(=O)N2CCCC[C@H]2C(=O)O[C@H]([C@H](C)C[C@@H]2CC[C@@H](O)[C@H](OC)C2)CC(=O)[C@H](C)/C=C(\C)[C@@H](O)[C@@H](OC)C(=O)[C@H](C)C[C@H](C)/C=C/C=C/C=C/1C [SIROLIMUS] | > 30 µM (inactive) | > 30 µM (inactive) | > 30 µM (inactive) | > 30 µM (inactive) | > 30 µM (inactive) | > 30 µM (inactive) | > 30 µM (inactive) | > 30 µM (inactive) | > 30 µM (inactive) | > 30 µM (inactive) | > 30 µM (inactive) | > 30 µM (inactive) | > 30 µM (inactive) |
| CCS(=O)(=O)c1cccc(-c2cc(C(=O)NC3CCN(C)CC3)c(C)c3[nH]c4ncc(C)cc4c23)c1 [TAK-901] | > 30 µM (inactive) | > 30 µM (inactive) | > 30 µM (inactive) | > 30 µM (inactive) | > 30 µM (inactive) | > 30 µM (inactive) | > 30 µM (inactive) | > 30 µM (inactive) | 0.31 µM (active) | > 30 µM (inactive) | 0.178 µM (active) | > 30 µM (inactive) | > 30 µM (inactive) |
| CO[C@H]1C[C@@H]2CC[C@@H](C)[C@@](O)(O2)C(=O)C(=O)N2CCCC[C@H]2C(=O)O[C@H]([C@H](C)C[C@@H]2CC[C@@H](OC(=O)C(C)(CO)CO)[C@H](OC)C2)CC(=O)[C@H](C)/C=C(\C)[C@@H](O)[C@@H](OC)C(=O)[C@H](C)C[C@H](C)/C=C/C=C/C=C/1C [TEMSIROLIMUS] | > 30 µM (inactive) | > 30 µM (inactive) | > 30 µM (inactive) | > 30 µM (inactive) | > 30 µM (inactive) | > 30 µM (inactive) | > 30 µM (inactive) | > 30 µM (inactive) | > 30 µM (inactive) | > 30 µM (inactive) | > 30 µM (inactive) | > 30 µM (inactive) | > 30 µM (inactive) |
| COc1cc2c(Nc3ccc(Cl)c(Cl)c3F)ncnc2cc1OC[C@@H]1C[C@@H]2CN(C)C[C@@H]2C1 [TESEVATINIB] | > 30 µM (inactive) | > 30 µM (inactive) | > 30 µM (inactive) | > 30 µM (inactive) | > 30 µM (inactive) | > 30 µM (inactive) | > 30 µM (inactive) | > 30 µM (inactive) | 0.921 µM (active) | > 30 µM (inactive) | 0.501 µM (active) | > 30 µM (inactive) | > 30 µM (inactive) |
| O=C(Cc1ccc(-c2ccc(OCCN3CCOCC3)cc2)cn1)NCc1ccccc1 [TIRBANIBULIN] | > 30 µM (inactive) | > 30 µM (inactive) | > 30 µM (inactive) | > 30 µM (inactive) | > 30 µM (inactive) | > 30 µM (inactive) | > 30 µM (inactive) | > 30 µM (inactive) | > 30 µM (inactive) | > 30 µM (inactive) | > 30 µM (inactive) | > 30 µM (inactive) | > 30 µM (inactive) |
| O=C1NC(=O)[C@@H](c2cn3c4c(cccc24)CCC3)[C@@H]1c1c[nH]c2ccccc12 [TIVANTINIB] | > 30 µM (inactive) | > 30 µM (inactive) | > 30 µM (inactive) | > 30 µM (inactive) | > 30 µM (inactive) | > 30 µM (inactive) | > 30 µM (inactive) | > 30 µM (inactive) | > 30 µM (inactive) | > 30 µM (inactive) | > 30 µM (inactive) | > 30 µM (inactive) | > 30 µM (inactive) |
| C[C@@H](NC(=O)c1ncnc(N)c1Cl)c1ncc(C(=O)Nc2cc(C(F)(F)F)c(Cl)cn2)s1 [TOVORAFENIB] | > 30 µM (inactive) | > 30 µM (inactive) | > 30 µM (inactive) | > 30 µM (inactive) | > 30 µM (inactive) | 4.41 µM | > 30 µM (inactive) | > 30 µM (inactive) | 0.498 µM (active) | > 30 µM (inactive) | 0.807 µM (active) | > 30 µM (inactive) | > 30 µM (inactive) |
| Cc1cc(Nc2ncnc3ccc(NC4=NC(C)(C)CO4)cc23)ccc1Oc1ccn2ncnc2c1 [TUCATINIB] | > 30 µM (inactive) | > 30 µM (inactive) | > 30 µM (inactive) | > 30 µM (inactive) | > 30 µM (inactive) | > 30 µM (inactive) | > 30 µM (inactive) | > 30 µM (inactive) | > 30 µM (inactive) | > 30 µM (inactive) | > 30 µM (inactive) | > 30 µM (inactive) | > 30 µM (inactive) |
| CC(C)c1cc(CNc2nc(Nc3cc(C4CC4)[nH]n3)cc(N3CCN(C)CC3)n2)on1 [XL-228] | > 30 µM (inactive) | > 30 µM (inactive) | > 30 µM (inactive) | > 30 µM (inactive) | > 30 µM (inactive) | > 30 µM (inactive) | > 30 µM (inactive) | > 30 µM (inactive) | 0.075 µM (active) | > 30 µM (inactive) | 0.032 µM (active) | > 30 µM (inactive) | > 30 µM (inactive) |
| CN1C/C=C/CCOc2cccc(c2)-c2ccnc(n2)Nc2cccc(c2)C1 [ZOTIRACICLIB] | > 30 µM (inactive) | 59 µM | > 30 µM (inactive) | > 30 µM (inactive) | > 30 µM (inactive) | > 30 µM (inactive) | > 30 µM (inactive) | > 30 µM (inactive) | 32.2 µM | > 30 µM (inactive) | > 30 µM (inactive) | > 30 µM (inactive) | > 30 µM (inactive) |
